pIC50: −log10 of the molar value. Active and inactive are the calls of the source. The calls are words filed in the database; no cut-off is given here.
What was measured:
[1] = tested on: Trypanosoma cruzi; experiment: Induction of morphological changes in Trypanosoma cruzi trypomastigotes assessed as appearance of rounded body at 2 times IC50 incubated for 24 hrs by SEM analysis; format: functional, organism-based
[2] = tested on: Trypanosoma cruzi; experiment: Induction of morphological changes in Trypanosoma cruzi trypomastigotes assessed as appearance of shortened flagellum at IC50 incubated for 24 hrs by SEM analysis; format: functional, organism-based
[3] = tested on: Trypanosoma cruzi; experiment: Induction of apoptosis in Trypanosoma cruzi trypomastigotes assessed as late apoptotic cells at 2 times IC50 incubated for 24 hrs by annexin V-FITC/PI staining based flow cytometry (reference value: 2.58 %); format: functional
[4] = tested on: Trypanosoma cruzi; experiment: Induction of apoptosis in Trypanosoma cruzi trypomastigotes assessed as necrotic cells at IC50 incubated for 24 hrs by annexin V-FITC/PI staining based flow cytometry (reference value: 4.05 %); format: functional
[5] = tested on: Trypanosoma cruzi; experiment: Induction of morphological changes in Trypanosoma cruzi trypomastigotes assessed as appearance of contorted body at IC50 incubated for 24 hrs by SEM analysis; format: functional, organism-based
[6] = tested on: Splenocyte; experiment: Immunomodulatory activity in mouse splenocytes assessed as reduction in IL-6 level at 10 ug/ml incubated for 24 hrs by flow cytometry; format: functional, cell-based; settings: dose 10.0 µg/ml
[7] = tested on: Trypanosoma cruzi; experiment: Induction of apoptosis in Trypanosoma cruzi trypomastigotes assessed as necrotic cells at 2 times IC50 incubated for 24 hrs by annexin V-FITC/PI staining based flow cytometry (reference value: 4.05 %); format: functional
[8] = tested on: Trypanosoma cruzi; experiment: Induction of apoptosis in Trypanosoma cruzi trypomastigotes assessed as late apoptotic cells at IC50 incubated for 24 hrs by annexin V-FITC/PI staining based flow cytometry (reference value: 2.58 %); format: functional
[9] = Selectivity index, ratio of CC50 for mouse RAW264.7 cells to IC50 for Trypanosoma cruzi Y trypomastigotes infected in African green monkey Vero cells; format: toxicity; settings: read-out: Ratio CC50/IC50
[10] = tested on: Trypanosoma cruzi; experiment: Antitrypanosomal activity against Trypanosoma cruzi Tulahuen amastigotes infected in mouse L929 cells assessed as parasite growth inhibition measured after 7 days by CPRG/Nonidet based assay; format: functional, organism-based; settings: L929, 168 h
[11] = Selectivity index, ratio of CC50 for mouse RAW264.7 cells to IC50 for Leishmania amazonensis WHOM/00 LTB 0016 amastigotes infected in mouse RAW264.7 cells; format: toxicity, cell-based; settings: read-out: Ratio CC50/IC50
[12] = tested on: Trypanosoma cruzi; experiment: Induction of morphological changes in Trypanosoma cruzi trypomastigotes assessed as appearance of loss of cytoplasmic content at 2 times IC50 incubated for 24 hrs by SEM analysis; format: functional, organism-based
[13] = tested on: Leishmania amazonensis; experiment: Antileishmanial activity against Leishmania amazonensis WHOM/00 LTB 0016 amastigotes infected in mouse RAW264.7 cells assessed as parasite growth inhibition incubated for 24 hrs by panoptic staining based assay; format: functional, organism-based; settings: WHOM/00 LTB 0016, RAW264.7, 24 h
[14] = tested on: Trypanosoma cruzi; experiment: Induction of morphological changes in Trypanosoma cruzi trypomastigotes membrane assessed as appearance of membrane rupture at 2 times IC50 incubated for 24 hrs by SEM analysis
[15] = tested on: Trypanosoma cruzi; experiment: Induction of morphological changes in Trypanosoma cruzi trypomastigotes assessed as appearance of thinned flagellum at 2 times IC50 incubated for 24 hrs by SEM analysis; format: functional, organism-based
[16] = Selectivity index, ratio of CC50 for mouse RAW264.7 cells to IC50 for Trypanosoma cruzi Tulahuen amastigotes infected in mouse L929 cells; format: toxicity, cell-based; settings: read-out: Ratio CC50/IC50
[17] = tested on: Splenocyte; experiment: Immunomodulatory activity in mouse splenocytes assessed as reduction in IL-6 level at 10 ug/ml incubated for 96 hrs by flow cytometry; format: functional, cell-based; settings: dose 10.0 µg/ml
[18] = tested on: Trypanosoma cruzi; experiment: Induction of apoptosis in Trypanosoma cruzi trypomastigotes assessed as early apoptotic cells at IC50 incubated for 24 hrs by annexin V-FITC/PI staining based flow cytometry (reference value: 0.10 %); format: functional
[19] = tested on: Trypanosoma cruzi; experiment: Induction of apoptosis in Trypanosoma cruzi trypomastigotes assessed as early apoptotic cells at 2 times IC50 incubated for 24 hrs by annexin V-FITC/PI staining based flow cytometry (reference value: 0.10 %); format: functional
[20] = tested on: Leishmania amazonensis; experiment: Antileishmanial activity against Leishmania amazonensis WHOM/00 LTB 0016 promastigotes assessed as parasite growth inhibition incubated for 72 hrs; format: functional, organism-based; settings: WHOM/00 LTB 0016, 72 h
[21] = tested on: Splenocyte; experiment: Immunomodulatory activity in mouse splenocytes assessed as effect on IFN-gamma level at 10 ug/ml incubated for 24 to 96 hrs by flow cytometry; format: functional, cell-based; settings: dose 10.0 µg/ml, time 24-96 hrs
[22] = tested on: Trypanosoma cruzi; experiment: Antitrypanosomal activity against Trypanosoma cruzi Y trypomastigotes infected in African green monkey Vero cells assessed as parasite growth inhibition incubated for 24 hrs by hemocytometry; format: functional, organism-based
[23] = Selectivity index, ratio of CC50 for mouse RAW264.7 cells to IC50 for Leishmania amazonensis WHOM/00 LTB 0016 promastigotes; format: toxicity; settings: read-out: Ratio CC50/IC50
[24] = Cytotoxicity against mouse RAW264.7 cells incubated for 48 hrs by MTT assay; format: toxicity, cell-based
[25] = tested on: Splenocyte; experiment: Immunomodulatory activity in mouse splenocytes assessed as reduction in IL-10 level at 10 ug/ml incubated for 24 hrs by flow cytometry; format: functional, cell-based; settings: dose 10.0 µg/ml
[26] = tested on: Splenocyte; experiment: Immunomodulatory activity in mouse splenocytes assessed as increase in IL-6 level at 10 ug/ml incubated for 48 to 72 hrs by flow cytometry; format: functional, cell-based; settings: dose 10.0 µg/ml, time 48-72 hrs
[27] = tested on: Splenocyte; experiment: Immunomodulatory activity in mouse splenocytes assessed as increase in IL-6 level at 10 ug/ml incubated for 24 hrs by flow cytometry; format: functional, cell-based; settings: dose 10.0 µg/ml
[28] = tested on: Trypanosoma cruzi; experiment: Induction of morphological changes in Trypanosoma cruzi trypomastigotes assessed as appearance of loss of cytoplasmic content at IC50 incubated for 24 hrs by SEM analysis; format: functional, organism-based
[29] = Cytotoxicity in BALB/c mouse splenocytes incubated for 24 hrs by [3H]-thymidine based liquid scintillation counter analysis; format: toxicity, cell-based, Splenocyte
[30] = tested on: Trypanosoma cruzi; experiment: Antitrypanosomal activity against Trypanosoma cruzi Y trypomastigotes assessed as parasite growth inhibition incubated for 24 hrs by Neubauer chamber based analysis; format: functional, organism-based

| SMILES | Activity [1] | Activity [2] | Activity [3] [%] | Activity [4] [%] | Activity [5] | Activity [7] [%] | Activity [8] [%] | selectivity ratio [9] | pIC50 [10] | selectivity ratio [11] | Activity [12] | pIC50 [13] | Activity [14] | Activity [15] | selectivity ratio [16] | Activity [18] [%] | Activity [19] [%] | pIC50 [20] | Activity [21] | CC50 at 48 h [24] [µM] | further results |
| --- | --- | --- | --- | --- | --- | --- | --- | --- | --- | --- | --- | --- | --- | --- | --- | --- | --- | --- | --- | --- | --- |
| S=C(N/N=C/c1ccccn1)Nc1ccccc1 | Active | Active | 2.9 | 6.13 | Active | 6.42 | 1.43 | 1 | 6.72 | 0.16 | Active | 4.44 | Active | Active | 31.2 | 0.07 | 10.3 | 4.93 | inactive | 6.09 | Activity [6]: Active; Activity [17]: Active; pIC50 [22]: 5.22; selectivity ratio [23]: 0.51 |
| CC1(C)S/C(=N/N=C/c2ccccn2)N(c2ccccc2)C1=O | Active | Active | 4.4 | 21.53 | Active | 21.27 | 3.66 | 162 | 6.19 | 15.2 | Active | 5.02 | Active | Active | 228 | 0.18 | 0.33 | 4.37 | inactive | 146 | Activity [25]: Active; Activity [26]: Active; pIC50 [22]: 6.05; Activity [27]: Active; selectivity ratio [23]: 3.5 |
| O=C(Cn1ccnc1[N+](=O)[O-])NCc1ccccc1 [BENZNIDAZOLE] | Active |  | 22.44 | 11.69 | Active | 12.44 | 8.37 | 8.5 | 5.20 |  |  |  | Active |  | 19.6 | 0.88 | 1.18 |  |  | 124 | Activity [28]: Active; Activity [6]: Active |
| CC(C)C1S/C(=N/N=C/c2ccccn2)N(c2ccccc2)C1=O (stereo not given) | Active | Active | 4.02 | 6.38 | Active | 30.19 | 3.83 | 46.4 | 6.22 | 2.82 | Active | 4.78 | Active | Active | 79 | 0.97 | 0.13 | 3.82 | inactive | 47.4 | Activity [17]: Active; Activity [25]: Active; pIC50 [22]: 6.00; selectivity ratio [23]: 0.3 |
| C/C(=N\N=C1/NC(=O)C(c2ccccc2)S1)c1cc(Cl)ccc1Cl (stereo not given) |  |  |  |  |  |  |  |  |  |  |  |  |  |  |  |  |  |  |  |  | CC50 at 24 h [29]: ≥ 100 µM; pIC50 [30]: 6.08 |

Reference: ChEMBL document CHEMBL5325424, “Structural design, synthesis, and anti-Trypanosomatidae profile of new Pyridyl-thiazolidinones” (Eur J Med Chem, 2023)
